Measurements: patent publication US20260337231A1, “METHOD FOR PRODUCING CYCLIC PEPTIDE COMPOUND” (CHUGAI SEIYAKU KABUSHIKI KAISHA, priority 2023, published 2026)

Tests used:
[1] = Crystal form after drying under reduced pressure (powder X-ray diffraction); format: physicochemical
Protocol: The amorphous powder of Compound 1 (10.7 mg) was dissolved in 2-propanol (32.1 μL), and about 0.1 mg of the crystal obtained in Example 3-1 was added. Thereafter, heptane ([…]) was added, and the mixture was shaken at room temperature for 3 hours. Furthermore, heptane (21.4 μL) was added, and after shaking at room temperature for 2 hours, heptane (21.4 μL) was added and the mixture was shaken at room temperature for 3 hours. Heptane (21.4 μL) was further added, and the mixture was shaken at room temperature for 15 hours, thereby obtaining a crystal (form E) of compound 1. Single crystal X-ray structural analysis was performed on the obtained crystal (Example 4-8), and it was confirmed to be a 2-propanol/heptane/water solvate. […] The obtained crystal (form E) was dried under reduced pressure, and powder X-ray diffraction measurement was performed (Example 4-3).
The amorphous powder of Compound 1 (9.0 mg) was dissolved in ethanol (27.0 μL), heptane (27.0 μL) was added, and the mixture was shaken at room temperature for 4 minutes. About 0.1 mg of the crystal obtained in Example 3-4 was added, and the mixture was shaken at room temperature for 1 minute to obtain a crystal of compound 1. Single crystal X-ray structural analysis was performed (Example 4-9), confirming that the obtained crystal is an ethanol/water solvate crystal (form H). […] The obtained crystal (form H) was dried under reduced pressure, and powder X-ray diffraction measurement was performed (Example 4-3).
The amorphous powder of Compound 1 (10.9 mg) was dissolved in ethyl acetate (32.7 μL), heptane (32.7 μL) was added, and the mixture was shaken at room temperature for 4 minutes. About 0.1 mg of the crystal obtained in Example 3-5 was added, and the mixture was shaken at room temperature for 1 minute, thereby obtaining a crystal of compound 1. Single crystal X-ray structural analysis was performed (Example 4-9), confirming that the obtained crystal is an ethyl acetate/water solvate crystal (form C). […] The obtained crystal (form C) was dried under reduced pressure, and powder X-ray diffraction measurement was performed (Example 4-3).
The crystal (form A, 6.8 mg) of compound 1 obtained in Example 3-8 was dissolved in dimethyl sulfoxide (0.12 mL), and the mixture was shaken and stirred at room temperature for 13 days. Furthermore, water (1 μL) was added and the mixture was stirred at room temperature for 34 days to obtain a crystal of compound 1. The obtained crystal was confirmed to be a dimethyl sulfoxide/water solvate crystal (form L) by single crystal X-ray structural analysis (Example 4-8). […] Powder X-ray diffraction measurement (Example 4-3) on the crystal obtained by performing the same procedure confirmed that the form L is a solvate crystal that is amorphized by drying under reduced pressure.
To the crystal (form B, 45.8 mg) of compound 1, propylene glycol (0.12 mL) was added, and the mixture was stirred at room temperature for 5 minutes. Furthermore, propylene glycol (0.020 mL) was added, and the mixture was stirred at 40° C. for 5 minutes. Thereafter, propylene glycol (0.070 mL) was added, the mixture was stirred at 40° C. for 5 minutes and further allowed to stand still for 5 hours. Propylene glycol (0.070 mL) was further added, and the mixture was stirred at 35° C. for overnight. Then, propylene glycol (0.070 mL) was added and the mixture was stirred for about 1 minute to obtain a wet powder of compound 1. […]

[2] = Thermogravimetry-differential thermal analysis (TG-DTA); format: physicochemical; details: 10° C./min, nitrogen, at 157° C., Example 3-17
Protocol: The thermogravimetry-differential thermal analysis (TG-DTA) for Example 3-8, Example 3-9, Example 3-12, Example 3-13, Example 3-17, and Example 3-19 was performed under the following conditions. • Measurement apparatus: STA7200RV+AS-3T (manufactured by Hitachi High-Tech Science Corporation) • Measurement range: 30 to 350° C. • Heating rate: 10° C./min • Atmosphere: nitrogen • Measurement: The sample was weighed in an open aluminum pan and covered with a mesh to perform the measurement.

Compound | transformation after drying under reduced pressure ([1]; drying under reduced pressure) | other results
CCC[C@H]1C(=O)N[C@@H]([C@@H](C)CC)C(=O)N2CCC[C@H]2C(=O)N(C)[C@H]2C/C=C\CCN(C2=O)[C@@H](Cc2ccc(C(F)(F)F)cc2)C(=O)N(C)CC(=O)N[C@@H](CCc2ccc(C(F)(F)F)c(OC)c2)C(=O)N2C[C@H](OCC)C[C@H]2C(=O)N(C)C2(CCC2)C(=O)N(C)[C@@H](C2CCCC2)C(=O)N(C)[C@H](C(=O)N(C)C)CC(=O)N1C [form C] | transformed into the hydrate crystal (form B) | –
CCC[C@H]1C(=O)N[C@@H]([C@@H](C)CC)C(=O)N2CCC[C@H]2C(=O)N(C)[C@H]2C/C=C\CCN(C2=O)[C@@H](Cc2ccc(C(F)(F)F)cc2)C(=O)N(C)CC(=O)N[C@@H](CCc2ccc(C(F)(F)F)c(OC)c2)C(=O)N2C[C@H](OCC)C[C@H]2C(=O)N(C)C2(CCC2)C(=O)N(C)[C@@H](C2CCCC2)C(=O)N(C)[C@H](C(=O)N(C)C)CC(=O)N1C [form H] | transformed into the hydrate crystal (form B) | –
CCC[C@H]1C(=O)N[C@@H]([C@@H](C)CC)C(=O)N2CCC[C@H]2C(=O)N(C)[C@H]2C/C=C\CCN(C2=O)[C@@H](Cc2ccc(C(F)(F)F)cc2)C(=O)N(C)CC(=O)N[C@@H](CCc2ccc(C(F)(F)F)c(OC)c2)C(=O)N2C[C@H](OCC)C[C@H]2C(=O)N(C)C2(CCC2)C(=O)N(C)[C@@H](C2CCCC2)C(=O)N(C)[C@H](C(=O)N(C)C)CC(=O)N1C [form L] | amorphized | –
CCC[C@H]1C(=O)N[C@@H]([C@@H](C)CC)C(=O)N2CCC[C@H]2C(=O)N(C)[C@H]2C/C=C\CCN(C2=O)[C@@H](Cc2ccc(C(F)(F)F)cc2)C(=O)N(C)CC(=O)N[C@@H](CCc2ccc(C(F)(F)F)c(OC)c2)C(=O)N2C[C@H](OCC)C[C@H]2C(=O)N(C)C2(CCC2)C(=O)N(C)[C@@H](C2CCCC2)C(=O)N(C)[C@H](C(=O)N(C)C)CC(=O)N1C [form N] | – | weight reduction [2]: about 11%
CCC[C@H]1C(=O)N[C@@H]([C@@H](C)CC)C(=O)N2CCC[C@H]2C(=O)N(C)[C@H]2C/C=C\CCN(C2=O)[C@@H](Cc2ccc(C(F)(F)F)cc2)C(=O)N(C)CC(=O)N[C@@H](CCc2ccc(C(F)(F)F)c(OC)c2)C(=O)N2C[C@H](OCC)C[C@H]2C(=O)N(C)C2(CCC2)C(=O)N(C)[C@@H](C2CCCC2)C(=O)N(C)[C@H](C(=O)N(C)C)CC(=O)N1C [form M] | – | transformation after drying under reduced pressure ([1]; dried under reduced pressure at room temperature for overnight): transformed into a form N crystal
CCC[C@H]1C(=O)N[C@@H]([C@@H](C)CC)C(=O)N2CCC[C@H]2C(=O)N(C)[C@H]2C/C=C\CCN(C2=O)[C@@H](Cc2ccc(C(F)(F)F)cc2)C(=O)N(C)CC(=O)N[C@@H](CCc2ccc(C(F)(F)F)c(OC)c2)C(=O)N2C[C@H](OCC)C[C@H]2C(=O)N(C)C2(CCC2)C(=O)N(C)[C@@H](C2CCCC2)C(=O)N(C)[C@H](C(=O)N(C)C)CC(=O)N1C [form E] | transformed into the hydrate crystal (form A) | –
